Results as given in patent US6992215B2, “Thiol-based NAALADase inhibitors” (Guildford Pharmaceuticals Inc., priority 2001, dated 2006).
Values joined by “and” are separate entries in the source; they are usually repeats but may differ in a detail not shown here. Equal entries are not always repeated. Peptide text beside a SMILES is read from it.

Tests used:
[1] = system: rats with unilaterally transected optic nerve; assay: Optic nerve transection (optic nerve fiber counting); assay type: in vivo, Rattus norvegicus; conditions: for remaining axons relative to the saline-treated rats: 2 weeks after transection; for FIBER NUMBER / PERCENT DIFFERENCE (fiber number between transected eye and normal eye): 10 mg/kg i.p. daily
Procedure: (§1) All experiments complied with the Association for Research in Vision and Ophthalmology Statement for the Use of Animals in Ophthalmic and Vision Research. 82 male Brown Norway rats (Rattus norvegicus), each weighing approximately 250 gm, were treated using procedures approved by the Animal Care Committee of the Johns Hopkins University School of Medicine. The rats were housed with a 12 hour light/12 hour dark cycle and fed ad libitum.
OPTIC NERVE TRANSECTION: The optic nerve was transected unilaterally in 26 rats under intraperitoneal pentobarbital anesthesia. The conjunctiva was opened with scissors and the optic nerve exposed by traction on extraocular muscles. The transection was performed with microscissors 5 mm posterior to the globe, with specific attention to avoidance of injury to major ocular blood vessels. Immediately after transection, the retina was examined ophthalmoscopically to assure that the retinal arterial blood supply was not disrupted. The conjunctiva was closed with absorbable suture and the eye dressed with antibiotic ointment. Beginning on the day of transection, the rats were treated daily with intraperitoneal injections of either a vehicle (9 rats with 50 mM HEPES-buffered saline) or a NAALADase inhibitor (8 rats with 10 mg/kg of Compound A and 9 rats with 10 mg/kg of Compound B). 5 saline treated rats, 3 Compound A treated rats and 4 Compound B treated rats were sacrificed at 2 weeks, and the remaining rats at 4 weeks, after transection.
(§2) OPTIC NERVE COUNTING: The rats were sacrificed by exsanguination under deep pentobarbital anesthesia. They were perfused through the heart with 2% paraformaldehyde/2% glutaraldehyde in 0.1 M phosphate buffer, pH 7.2, and the eyes with attached optic nerves were removed. A cross-section of the optic nerve from both experimental (glaucoma or transection) and control eyes was removed 1.5 mm posterior to the globe, 1 mm in thickness, and post-fixed in 2% osmium tetroxide in buffer. These were processed into epoxy resin, sectioned at 1 micron and stained with toluidine blue.
(§3) The area of the optic nerve cross-section was measured by outlining its outer border at 10× magnification on an image analysis system (Universal Imaging Corp., Westchester, Pa.) with Synsys digital camera and Metamorph software. Three area measurements were taken and the mean value was determined. To measure the density and fiber diameter distributions, images were captured with a 100× phase contrast objective from 10 different areas of each nerve. These were edited to eliminate non-neural objects and the size of each axon internal to the myelin sheath (its minimum diameter) and the density of axons/square mm were calculated for each image and nerve. The mean density was multiplied by total nerve area to yield fiber number for each nerve. The total fiber number in glaucoma or transection nerves was compared to the normal, fellow eye of each rat to yield a percent loss value. The number of axons counted among the 10 images was an approximately 20% sample of the 80–90,000 axons in normal rat nerves. The person measuring axon number was masked to the protocol conducted on the nerves.

[2] = system: rats with unilateral elevation of intraocular pressure; assay: Experimental rat glaucoma (IOP elevation, optic nerve fiber counting); assay type: in vivo; conditions: for FIBER NUMBER / PERCENT DIFFERENCE (fiber number between glaucoma and normal eye): 10 mg/kg i.p. daily; for mean percent fiber loss versus saline-treated control groups: at 8 weeks, p=0.05 for Compound A and p=0.02 for Compound B
Procedure: as §1
EXPERIMENTAL GLAUCOMA: Unilateral elevation of intraocular pressure (“IOP”) was produced in 56 rats by microinjection of hypertonic saline into episcleral veins, following procedures described in Morrison, J. et al., IOVS (March 1998) 39:526–531. Beginning on the day of IOP elevation, the rats were treated daily with intraperitoneal injections of either a vehicle (23 rats with 50 mM HEPES-buffered saline) or a NAALADase inhibitor (11 rats with 10 mg/kg of Compound A and 22 rats with 10 mg/kg of Compound B). 11 saline treated rats, 11 Compound A treated rats and 11 Compound B treated rats were sacrificed at 8 weeks, and the remaining rats at 12 weeks, after initial IOP elevation.
as §2, §3

[3] = system: BB/W diabetic rats; assay: Progression of neuropathic pain and nerve conduction deficits in BB/W model; assay type: in vivo
Source text: Male BB/W rats (BRI, Mass) spontaneously develop a cell mediated autoimmune destruction of pancreatic B cells, resulting in onset of insulin-dependent (Type I) diabetes (Guberski 1994). […] This renders them valuable for experimental trials of new compounds for future treatments of this major disorder. In the present study, Compound D and Compound A were examined for their ability to alter the progression of diabetic neuropathy. […] Another group of non-diabetic rats also receiving vehicle were tested. All animals were continuously monitored for body weight, urine volume, blood sugar and glycated haemoglobin. In the first month of the study, all animals were tested for thermal nociception in a Hargreaves apparatus, weekly. After the first month this was done biweekly and then monthly. The testing consists of directing an infrared heat source onto the dorsal surface of the rat hindpaw and noting the time taken for the animal to remove its paw (see Hargreaves et al., supra, for a description of the experimental method). Each animal was tested 8 times and the mean withdrawal latency noted.
Nerve conduction velocity was also measured every two weeks through the first eight weeks of treatment and every month thereafter through to the six months of treatment (see De Koning et al., Peptides, Vol. 8, No. 3, pp. 415–22 (1987) for a description of the experimental method). […] This was apparent starting at 8 weeks of treatment and persisted to a similar degree through to the six month termination point of the study.

[4] = system: STZ-diabetic rats; assay: Diabetic neuropathy in STZ model (motor and sensory nerve conduction velocity); assay type: in vivo
Procedure: Motor and sensory nerve conduction velocity was also measured in STZ-diabetic animals after 4, 8 and 12 weeks of treatment (see De Koning et al., supra, for a description of the experimental method). Briefly, stimulating needle electrodes were inserted close to the sciatic and tibial nerves with recording electrodes being placed subcutaneously over the distal foot muscles, in anesthetized rats.

[5] = system: transgenic G1H mice; assay: Effect of NAALADase inhibitors on onset of ALS (FALS transgenic mice); assay type: in vivo
Procedure: The effect of NAALADase inhibitors on the onset of ALS was tested using the transgenic mice model of familial amyotrophic lateral sclerosis (FALS), which is detailed in Gurney, M., Annals of Neurology (1996) 39:147–157, and otherwise well known in the art. One month old transgenic G1H mice were treated with daily intraperitoneal injections of a vehicle (50 mM HEPES-buffered saline) or a NAALADase inhibitor (50 mg/kg Compound A). Clinical symptoms of the mice were monitored daily. The onset of clinical disease was scored by examining each mouse for its shaking of limbs when suspended in the air by its tail, cross spread of spinal reflexes, hindlimb paralysis, body weight and wheel running activity.

[6] = system: STZ-induced diabetic rats; assay: Neuropathic pain in STZ model (Hargreaves thermal nociception); assay type: in vivo, Sprague-Dawley rats; conditions: 10 mg/kg i.p. daily, treatment started 45 days post-STZ
Procedure: Male Sprague-Dawley rats (200–225 g) were rendered diabetic by intravenous administration of streptozotocin (“STZ”, 70 mg/kg in phosphate buffered saline). Diabetic animals were divided into five groups: one group receiving Compound A (10 mg/kg or 1 mg/kg), Compound D (10 mg/kg or 1 mg/kg) or vehicle. Another group of animals (non-STZ treated) served as non-diabetic controls. Drug/vehicle treatment was started in diabetic animals 45 days post-STZ administration. STZ-induced diabetic rats were tested for sensitivity to a heat source as soon as blood glucose levels rose to 320 mg/dl or above (30 days post STZ). The rats were then acclimated to a Hargreaves apparatus and thermal nociception was monitored using an infrared heat source directed into the dorsal surface of the hindpaw, and the time taken for the animal to remove its paw noted to the nearest 0.1 seconds (see Hargreaves et al., supra, for detailed experimental method). The intensity of the beam source was adjusted such that the mean latency for control animals (non-STZ treated) was approximately 10 seconds. Each animal was tested 8 times and the mean difference score (between mean non-diabetic control latency and mean diabetic latency) are graphically presented in FIGS. 7A and 7B.

[7] = system: transgenic HD mice (N171–82Q); assay: Huntington's disease transgenic mouse model, survival; assay type: in vivo
Procedure: The effects of Compound B and vehicle on the survival of transgenic HD mice (N171–82Q) were evaluated. Thirteen mice (six male and seven female) were assigned to the Compound B treatment group, and fourteen mice (six male and eight female) were assigned to the vehicle treatment group. Treatment was continued until all the mice died.

[8] = system: transgenic HD mice of the N171–82Q strain; assay: Huntington's disease transgenic mouse model, behavioral testing (rotarod, locomotion); assay type: in vivo; conditions: FIG. 42
Procedure: Transgenic HD mice of the […]-[…] strain and non-transgenic littermates were treated with NAALADase inhibitor Compound B (30 mg/kg) or a vehicle from 10 weeks of age. The mice were placed on a rotating rod (“rotarod”). The length of time at which the mouse fell off the rotarod was recorded as a measure of motor coordination. […] The treatment with Compound B had no effect on the rotarod performance of normal non-HD mice. The total distance traveled by the mice was also recorded as a measure of overall locomotion.

[9] = biological target: T1, NAALADase (Homo sapiens, UniProt Q04609); conditions: NAAG as substrate; cited from earlier work
T1 construct: 100 μL tissue; from tissue; host or cells: unspecified tissue
T1 sequence (Q04609 whole entry): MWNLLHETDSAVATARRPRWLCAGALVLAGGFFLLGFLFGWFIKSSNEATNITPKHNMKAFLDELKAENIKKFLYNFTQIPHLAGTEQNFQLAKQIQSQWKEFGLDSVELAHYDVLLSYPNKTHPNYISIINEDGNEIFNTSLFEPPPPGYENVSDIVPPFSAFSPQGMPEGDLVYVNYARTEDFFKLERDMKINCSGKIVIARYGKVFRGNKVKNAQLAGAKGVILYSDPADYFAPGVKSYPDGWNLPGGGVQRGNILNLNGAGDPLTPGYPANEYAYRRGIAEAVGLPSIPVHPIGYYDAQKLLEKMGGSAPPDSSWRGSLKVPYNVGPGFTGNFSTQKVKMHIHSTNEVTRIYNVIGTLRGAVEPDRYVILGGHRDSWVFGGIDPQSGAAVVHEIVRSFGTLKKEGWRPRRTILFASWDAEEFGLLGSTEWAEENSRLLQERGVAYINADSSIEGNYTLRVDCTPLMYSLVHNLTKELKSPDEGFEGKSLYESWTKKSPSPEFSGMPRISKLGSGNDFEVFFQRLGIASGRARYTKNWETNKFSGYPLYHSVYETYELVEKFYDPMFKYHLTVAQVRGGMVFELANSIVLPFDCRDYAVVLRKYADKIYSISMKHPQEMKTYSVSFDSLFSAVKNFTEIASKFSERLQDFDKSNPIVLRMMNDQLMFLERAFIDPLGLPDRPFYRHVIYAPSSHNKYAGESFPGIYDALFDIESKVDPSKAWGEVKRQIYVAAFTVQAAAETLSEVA

[10] = 8 week group, positive value indicates fewer fibers in the glaucoma eye

Row | SMILES | remaining axons relative to the saline-treated rats [1] | FIBER NUMBER ([1]; 2 weeks survival) | PERCENT DIFFERENCE (fiber number between transected eye and normal eye) ([1]; 2 weeks survival) [%] | FIBER NUMBER ([1]; 4 weeks survival) | PERCENT DIFFERENCE (fiber number between transected eye and normal eye) ([1]; 4 weeks survival) [%] | FIBER NUMBER ([2]; 8 week group) | PERCENT DIFFERENCE (fiber number between glaucoma and normal eye) [2, 10] [%] | mean percent fiber loss versus saline-treated control groups [2] | also measured
1 | O=C(O)CCC(CP(=O)(O)Cc1c(F)c(F)c(F)c(F)c1F)C(=O)O (centres unmarked) [Compound A] | 3 times | 26,426 ± 23,025 | 65.3 ± 30.9 | 13,599 ± 7,868 | 82.4 ± 8.9 | 79156 ± 2436 | −1.82 ± 2.92 | statistically less | nerve conduction velocity deficits versus diabetic vehicle controls ([3]; 10 mg/kg daily, from 8 weeks to six months of treatment, FIG. 12): significantly less severe nerve conduction deficits; withdrawal latency versus diabetic vehicle-treated rats ([3]; 10 mg/kg i.p. daily, starting after 4 weeks and through six months of treatment, FIG. 11): longer withdrawal latencies; motor and sensory nerve conduction velocities ([4]; 10 mg/kg daily for 4, 8 and 12 weeks, FIGS. 9A and 9B): tended to improve (increase); treatment time after which improvement of motor nerve conduction velocity was significant ([4]; 10 mg/kg daily, FIG. 9A): 12 weeks; treatment time after which improvement of sensory nerve conduction velocity was significant ([4]; 10 mg/kg daily, FIG. 9B): 8 weeks; DIFFERENCE (disease onset, Compound A treated versus vehicle treated mice) ([5]; 50 mg/kg daily intraperitoneal injections): 32 and 25; DISEASE ONSET FOR COMPOUND A TREATED MICE ([5]; 50 mg/kg daily intraperitoneal injections from one month of age): 221 days and 166 days; hyperalgesic response (withdrawal latency difference score) [6]: completely reversed
2 | O=C(O)CCC(CCCS)C(=O)O (centres unmarked) [Compound B, 2-(3-sulfanylpropyl)pentanedioic acid] | twice | 19,550 ± 11,383 | 75.3 ± 14.8 | 5,162 ± 5,017 | 93.4 ± 6.2 | 80785 ± 2121 | −0.82 ± 2.97 | statistically less | survival time versus vehicle treated counterparts ([7]; female mice, p-value=0.03, FIG. 46): significantly prolonged survival time; difference in median survival time versus vehicle treatment group ([7]; p-value=0.07): not statistically significant; median survival time ([7]; transgenic HD mice, male and female, FIG. 44): 184 days; FIBER NUMBER ([2]; 12 week group): 90504 ± 1718; PERCENT DIFFERENCE (fiber number between glaucoma and normal eye) ([2]; 12 week group): −3.21 ± 2.86%; rotarod performance ([8]; normal non-HD mice, 30 mg/kg): no effect; rotarod performance (time on the rotarod) versus vehicle ([8]; transgenic HD mice, 30 mg/kg from 10 weeks of age): stayed longer on the rotarod
3 | CC(=O)N[C@@H](CC(=O)O)C(=O)N[C@@H](CCC(=O)O)C(=O)O [NAAG, N-acetyl-aspartyl-glutamate] (Ac-Asp-Glu-OH) |  |  |  |  |  |  |  |  | Km [9]: 540 nM
